Read-outs that look alike come from different tables or passages of the source.
Key:
[1] = test system: CYP2B6; experiment: Induction of CYP2B6 activity (bupropion to hydroxybupropion, LC-MS/MS) in PHH; conditions: PHH model, versus basal (DMSO 0.1%)
Protocol: (§1) The primary human hepatocyte (PHH) cell line was obtained from four different healthy donors. PHH cells culture was performed according to the LONZA protocol (described in Document #BR-CryoHep-1 07/20 www.bioscience.lonza.com © 2020 Lonza Walkersville, Inc) with cell seeding at 70,000 cells/well in collagen I-coated 96-well plates (Corning® BioCoat™ Collagen I 96 Clear Well Plate). One hour after seeding, the PHH cells were cultured by the Sandwich method using Matrigel (Corning® Matrigel® Matrix) according to the protocol described in Gijbels et al. (Experimental Cholestasis Research, 2019). PHH cells were used 3 days later (short duration) or 2 weeks later (long duration) for the experiments. PHH cell line was cultivated at 37° C. in a humidified atmosphere with 5% CO2.
(§2) PHH and LO grown in 96-well plates were treated by adding 200 μl/well and HLCs in 6-well plates by adding 1 ml/well of CYP's inductors in a hepatocyte culture medium (HCM) without EGF (Lonza—CC-3198).
(§3) CYPs were induced by different types of inducers (SIGMA) at different concentrations for 3 days (as detailed in TABLE 3): Omeprazole (50 μM), Rifampicin (10 μM), Imidazole (500 μM), Phenobarbital (500 μM) and CITCO (1 μM). A control condition (namely “basal”) is performed with DMSO […] instead of inducer. […]

[2] = test system: liver organoid (LO); conditions: 48 h
Protocol: Steatosis was induced by amiodarone at 20 μM or ethanol at […] for 2 days after the end of differentiation (Day 28). After fixation of the cells with paraformaldehyde (PFA 4% in PBS) for 15 minutes at room temperature, the lipids were labelled with Nile Red (50 ng/ml) for 1 hour at room temperature and then washed three times with PBS (1000 μl). At this step, samples can be stored in PBS at 4° C.
(§4) After the acquisition of different Z-stacks of the LOs, the images were analyzed and quantified by the image analysis software Metaxpress developed by Molecular Devices.

[3] = test system: CYP1A2; experiment: Induction of CYP1A2 activity (phenacetin to acetaminophen, LC-MS/MS) in PHH; type: in vitro ADME, human; conditions: PHH model, omeprazole 50 μM for 3 days, versus basal (DMSO 0.1%)
Protocol: as §1, §2, §3

[4] = test system: liver organoid (LO); experiment: Internalization of LDL-bodipy by liver organoids; type: cell-based, human; conditions: 20 hours, then 3 hours LDL-bodipy, compared to controls (FIG. 2)
Protocol: Treatment with mevastatin (20, 25 and 30 μg/ml) or DMSO (0.1%) was performed for 20 hours after the end of differentiation (Day 28). After treatment, LOs were incubated with LDL-bodipy (Invitrogen, Ref: L3483) for 3 hours (INVITROGEN). Finally, once the incubation with LDL-bodipy was completed, the scaffolds were washed three times with HCM medium (LONZA) at 37° C. and then the cells were fixed with paraformaldehyde (PFA 4% in PBS) for 15 minutes at room temperature. At this stage, the samples can be stored in PBS at 4° C.
as §4
Concerning LDL internalization, it was noted that the LO model significatively reacted to mevastatin at concentrations of 20, 25 and 30 ug/ml with an increase in LDL-bodipy internalization of 14, 18 and 26% respectively compared to controls (FIG. 2).

Compound: Clc1ccc(-c2nc3sccn3c2/C=N/OCc2ccc(Cl)c(Cl)c2)cc1 [CITCO]
- induction of CYP2B6 ([1]; CITCO 1 μM for 3 days): 3.3 times

Compound: CCC1(c2ccccc2)C(=O)NC(=O)NC1=O [phenobarbital, Phenobarbital]
- induction of CYP2B6 ([1]; phenobarbital 500 μM for 3 days): 5.8 times

Compound: CCO [ethanol]
- increase in lipid accumulation ([2]; 0.1 µM): 29%

Compound: COc1ccc2[nH]c([S+]([O-])Cc3ncc(C)c(OC)c3C)nc2c1 (centres unmarked) [omeprazole, Omeprazole]
- induction of CYP1A2 [3]: 7.2 times

Compound: CC[C@H](C)C(=O)O[C@H]1CCC=C2C=C[C@H](C)[C@H](CC[C@@H]3C[C@@H](O)CC(=O)O3)[C@H]21 [mevastatin]
- increase in LDL-bodipy internalization ([4]; mevastatin 20 ug/ml): 14%
- increase in LDL-bodipy internalization ([4]; mevastatin 25 ug/ml): 18%
- increase in LDL-bodipy internalization ([4]; mevastatin 30 ug/ml): 26%

Compound: CCCCc1oc2ccccc2c1C(=O)c1cc(I)c(OCCN(CC)CC)c(I)c1 [amiodarone]
- increase in lipid accumulation ([2]; 40 µM): 60%

Source: US20240279612A1, “LIVER ORGANOID MANUFACTURING METHODS, LIVER ORGANOIDS OBTAINED WITH THE SAME, AND USES THEREOF” (INSTITUT NATIONAL DE LA SANTÉ ET DE LA RECHERCHE MÉDICALE, priority 2021, published 2024)
